Test results from PMC7807051, “Modulation of cAMP metabolism for CFTR potentiation in human airway epithelial cells” (Scientific Reports, 2021).
Like-named read-outs stand apart in the source and are kept apart here.

Legend:
ABCC4 [1] = molecular target: T1, ABCC4 (Homo sapiens, UniProt O15439); test: In vitro extracellular cAMP assay of ABCC4 inhibitors in Calu-3 cells; assay type: cell-based; settings: IBMX 20 μM pre-treatment, forskolin 10 μM, normalized to IBMX + forskolin, read-out: half maximal inhibitory concentration (IC50), extracellular cAMP
T1 construct: ABCC4 was present in both HBEC6-KT and Calu-3 cells at all-time points, indicated by the bands present at 150 kDa; endogenous in cells; host or cells: HBEC6-KT (immortalized human bronchial epithelial cells)
T1 sequence (O15439 1-1325): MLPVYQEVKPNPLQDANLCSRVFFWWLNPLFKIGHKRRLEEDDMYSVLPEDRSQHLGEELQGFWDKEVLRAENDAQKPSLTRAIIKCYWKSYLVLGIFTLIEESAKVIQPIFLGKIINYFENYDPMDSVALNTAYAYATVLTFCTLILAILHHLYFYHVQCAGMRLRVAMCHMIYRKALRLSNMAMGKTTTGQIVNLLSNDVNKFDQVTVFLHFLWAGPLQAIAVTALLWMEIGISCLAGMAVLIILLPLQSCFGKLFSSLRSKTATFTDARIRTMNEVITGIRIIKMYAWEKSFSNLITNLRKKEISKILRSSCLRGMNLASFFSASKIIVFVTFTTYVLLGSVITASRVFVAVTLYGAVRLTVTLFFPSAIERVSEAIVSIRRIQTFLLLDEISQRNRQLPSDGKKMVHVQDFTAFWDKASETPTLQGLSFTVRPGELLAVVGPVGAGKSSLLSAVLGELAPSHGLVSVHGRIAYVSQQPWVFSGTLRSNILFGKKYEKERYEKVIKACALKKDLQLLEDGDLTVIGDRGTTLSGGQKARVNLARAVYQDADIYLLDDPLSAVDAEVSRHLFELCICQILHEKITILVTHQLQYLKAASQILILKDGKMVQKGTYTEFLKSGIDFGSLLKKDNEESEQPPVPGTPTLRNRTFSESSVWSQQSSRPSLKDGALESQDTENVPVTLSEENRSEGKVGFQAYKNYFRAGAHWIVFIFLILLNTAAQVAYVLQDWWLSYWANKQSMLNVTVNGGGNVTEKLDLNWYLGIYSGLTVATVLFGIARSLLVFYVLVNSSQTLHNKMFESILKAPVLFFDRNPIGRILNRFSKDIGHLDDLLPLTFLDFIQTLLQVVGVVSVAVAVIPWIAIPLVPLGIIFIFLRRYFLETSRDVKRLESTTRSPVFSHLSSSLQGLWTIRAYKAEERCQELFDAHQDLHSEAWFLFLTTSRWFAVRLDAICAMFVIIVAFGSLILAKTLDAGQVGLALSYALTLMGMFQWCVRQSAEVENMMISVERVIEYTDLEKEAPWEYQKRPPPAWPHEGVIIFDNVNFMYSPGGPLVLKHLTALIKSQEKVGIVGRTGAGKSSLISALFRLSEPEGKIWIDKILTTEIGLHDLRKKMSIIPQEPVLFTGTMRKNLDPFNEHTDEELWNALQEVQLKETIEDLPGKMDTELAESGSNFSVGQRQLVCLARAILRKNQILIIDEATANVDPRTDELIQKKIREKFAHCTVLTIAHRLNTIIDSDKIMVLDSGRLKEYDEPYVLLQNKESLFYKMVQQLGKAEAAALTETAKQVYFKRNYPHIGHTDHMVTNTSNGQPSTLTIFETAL
Procedure: Cell culture supernatants were assessed for cAMP levels 24 h post-treatment.
(§2) Cells were pretreated with IBMX (20 μM) for 2 h prior to experimental conditions. After the pre-treatment of IBMX, cells were treated with ABCC4 inhibitors (0.01–100 μM) or DMSO for 30 min. Following these exposures, the cells were treated with forskolin (10 μM) for 6 h and cell-culture supernatants were collected for analysis of extracellular cAMP. The negative control was IBMX alone and the positive control was IBMX and forskolin.
(§3) For the in vitro extracellular cAMP assay, values were normalized to the positive control (IBMX and forskolin) and the half maximal inhibitory concentration (IC50) was determined. SD was calculated using data from biological replicates (n = 4–5).

ABCC4 [2] = molecular target: T1, ABCC4; test: In vitro extracellular cAMP assay of ABCC4 inhibitors in HBEC6-KT cells; assay type: cell-based; settings: IBMX 20 μM pre-treatment, forskolin 10 μM, normalized to IBMX + forskolin, read-out: half maximal inhibitory concentration (IC50), extracellular cAMP
Procedure: as §2, §3
Cell culture supernatants were assessed for cAMP levels 24h post-treatment.

CFTR [3] = test: In vitro CFTR membrane potential assay in Calu-3 cells; assay type: cell-based, human; settings: for EC50: Calu-3 cells, cAMP inducer alone
Procedure: (§1) An in vitro CFTR membrane potential assay was performed on Calu-3 cells and primary human bronchial epithelial cells, from two independent donors, cultured at 37 °C as previously described. All human samples were collected from consented individuals under ethics approval granted by Hamilton Integrated Research Ethics Board (Project Number 5099-T).
Calu-3 cells were grown for 21 days on 96-well plates and primary HBECs were grown for 14 days under air–liquid interface conditions on collagen-coated (Sigma-Aldrich) 6.5 mm Transwell Inserts (Corning). All cells were washed with HBSS prior to experimental conditions. After washing with HBSS, cells were loaded with BLUE Membrane Potential Dye (Molecular Devices, #R8042) dissolved in 37 °C chloride-free buffer (NMDG Gluconate Buffer – 150 mM NMDG-gluconate, 3 mM KCl, 10 mM HEPES, pH 7.35, 300 mOsm). Immediately after dye loading, CFTR activity measurements were taken. CFTR activity measurements are fluorescent readouts for detecting ion channel activity. CFTR inhibition was performed with CFTRinh-172 (10 μM) for all experiments to attribute changes in fluorescence as CFTR channel activity. This assay has been validated using proof of concept studies where results obtained from this assay were able to recapitulate findings obtained from direct measurements of ion channel activity using Ussing chambers. At the end of this assay, raw data was exported for statistical analysis.
For Calu-3 cells, measurements were taken during baseline (40 min), cAMP elevation (30 min), and CFTR inhibition (20 min). cAMP elevation was performed using forskolin or isoproterenol (0.0005–50 μM). For assays with ABCC4 or PDE-4 inhibitors, a pre-incubation with the inhibitors (30 min) in the plate reader was performed prior to cAMP elevation. CFTR modulator VX-770 was used at 1 μM. CFTR activity was determined by dividing a single membrane potential peak measurement after the ABCC4 or PDE-4 inhibition and cAMP elevation additions to the stabilized baseline over DMSO control.
For in vitro CFTR membrane potential assays, in Calu-3 cells, values were normalized to the averaged baseline over averaged vehicle (DMSO) control of all biological replicates. SD was calculated using data from biological replicates (n = 4–8). An area under the curve (AUC), half-maximal concentration (EC50), […] (Emax), and baseline analysis was performed for each individual replicate then averaged together. The AUC analysis is an aggregate measure of sensitivity and maximal response, allowing for the observation of the total net responsiveness of the cells. The AUC analysis was done by normalizing the individual replicates to the bottom most value of the averaged vehicle control. In primary HBECs, six independent measurements were taken within a single Transwell insert. The value is the average of at least six measurements. These values were normalized to the averaged baseline over the averaged vehicle (DMSO) control. SD was calculated by treating the six measurements as independent, with additional technical replicates (n = 6–18). An AUC and max peak analysis were performed for each measurement, then averaged together. The max peak analysis was the max CFTR activity achieved during the drug addition step.
In order to compare the independent experiments performed, a fold-change analysis using individual AUC, EC50, and Emax, determined from their respective concentration–response curves, was performed and was normalized to the averaged DMSO vehicle control. A one-way ANOVA with subsequent post-hoc test or a paired t-test was performed. Statistical analysis was performed using GraphPad Prism 6.

CFTR [4] = molecular target: T2, CFTR (Homo sapiens, UniProt P13569); test: In vitro CFTR membrane potential assay in primary human bronchial epithelial cells (air–liquid interface); assay type: cell-based; settings: primary HBECs, one donor sample; forskolin 10 μM; VX-770 1 μM, MK-571 1.8 μM, Roflumilast 1 μM
T2 construct: endogenous in cells; host or cells: primary human bronchial epithelial cells from two donors, air–liquid interface
T2 sequence (P13569 whole entry): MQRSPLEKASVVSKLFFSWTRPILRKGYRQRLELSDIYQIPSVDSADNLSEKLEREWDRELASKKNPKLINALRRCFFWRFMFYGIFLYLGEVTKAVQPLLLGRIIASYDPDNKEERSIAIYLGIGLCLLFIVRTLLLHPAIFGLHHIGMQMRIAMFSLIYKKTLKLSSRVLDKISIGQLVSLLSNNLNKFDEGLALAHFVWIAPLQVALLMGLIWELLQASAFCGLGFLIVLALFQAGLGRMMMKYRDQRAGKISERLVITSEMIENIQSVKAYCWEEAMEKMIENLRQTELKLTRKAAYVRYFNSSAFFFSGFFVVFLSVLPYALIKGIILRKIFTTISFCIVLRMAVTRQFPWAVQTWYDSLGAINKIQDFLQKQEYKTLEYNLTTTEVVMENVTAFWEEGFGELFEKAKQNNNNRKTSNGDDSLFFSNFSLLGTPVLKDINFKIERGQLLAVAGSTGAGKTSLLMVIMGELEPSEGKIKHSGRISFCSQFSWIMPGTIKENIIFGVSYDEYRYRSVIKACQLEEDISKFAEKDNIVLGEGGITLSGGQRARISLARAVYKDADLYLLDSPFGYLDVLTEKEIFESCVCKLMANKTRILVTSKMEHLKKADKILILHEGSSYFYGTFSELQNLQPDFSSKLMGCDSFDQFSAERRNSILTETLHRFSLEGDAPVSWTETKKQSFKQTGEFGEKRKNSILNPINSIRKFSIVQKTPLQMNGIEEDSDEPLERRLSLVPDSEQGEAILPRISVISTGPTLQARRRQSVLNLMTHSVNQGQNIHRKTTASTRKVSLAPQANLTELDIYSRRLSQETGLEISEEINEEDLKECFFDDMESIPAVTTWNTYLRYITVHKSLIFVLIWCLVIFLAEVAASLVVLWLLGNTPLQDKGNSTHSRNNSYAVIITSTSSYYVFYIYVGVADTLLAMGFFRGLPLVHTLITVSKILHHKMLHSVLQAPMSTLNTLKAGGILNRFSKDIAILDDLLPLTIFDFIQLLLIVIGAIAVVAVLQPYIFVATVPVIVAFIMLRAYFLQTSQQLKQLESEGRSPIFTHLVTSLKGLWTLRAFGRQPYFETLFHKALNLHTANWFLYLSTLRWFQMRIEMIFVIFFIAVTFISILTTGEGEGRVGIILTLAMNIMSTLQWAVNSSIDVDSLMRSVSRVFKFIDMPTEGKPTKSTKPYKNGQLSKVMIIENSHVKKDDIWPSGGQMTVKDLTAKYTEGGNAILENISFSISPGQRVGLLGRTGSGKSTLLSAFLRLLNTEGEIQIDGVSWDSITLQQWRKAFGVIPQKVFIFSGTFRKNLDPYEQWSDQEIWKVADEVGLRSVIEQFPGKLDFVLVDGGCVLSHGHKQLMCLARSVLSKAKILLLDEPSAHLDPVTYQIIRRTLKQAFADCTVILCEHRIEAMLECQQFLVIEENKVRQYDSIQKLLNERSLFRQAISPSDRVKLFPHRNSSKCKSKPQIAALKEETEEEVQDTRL
Procedure: as §1
Calu-3 cells were grown for 21 days on 96-well plates and primary HBECs were grown for 14 days under air–liquid interface conditions on collagen-coated (Sigma-Aldrich) 6.5 mm Transwell Inserts (Corning). All cells were washed with HBSS prior to experimental conditions. […] CFTR activity measurements are fluorescent readouts for detecting ion channel activity. CFTR inhibition was performed with CFTRinh-172 (10 μM) for all experiments to attribute changes in fluorescence as CFTR channel activity. […]
For primary HBECs, measurements were taken during baseline (8 min), drug additions (40 min), and CFTR inhibitions (18 min). cAMP elevation was performed using forskolin (10 μM). […] CFTR activity was determined by averaging six independent measurements within a single Transwell insert. […]
For in vitro CFTR membrane potential assays, in Calu-3 cells, values were normalized to the averaged baseline over averaged vehicle (DMSO) control of all biological replicates. SD was calculated using data from biological replicates (n = 4–8). […]

CFTR [5] = test system: CFTR; design: method as in PMID 24106801; settings: primary non-CF HBECs; cited from earlier work
CFTR [6] = test system: CFTR; design: method as in PMID 24106801; settings: Calu-3 cells; cited from earlier work
[7] = Calu-3, forskolin (FSK) curve with agent vs DMSO control
[8] = Calu-3, forskolin (FSK) curve with agent vs DMSO control, VX-770 1 μM, MK-571 1.8 μM, Ceefourin-1 4.8 μM, Roflumilast 1 μM, Rolipram 10 μM, IBMX 100 μM
[9] = Calu-3, isoproterenol (ISO) curve with agent vs DMSO control
[10] = Calu-3, isoproterenol (ISO) curve with agent vs DMSO control, same agent concentrations as E5
[11] = read-out: half maximal effective concentration (EC50), CFTR activity

SMILES | IC50 (ABCC4 [1]) | IC50 (ABCC4 [2]) | Baseline of concentration–response curve, CFTR activity (CFTR [3]; [7]) | EC50 of concentration–response curve, CFTR activity (CFTR [3]; [7]) | Emax of concentration–response curve, CFTR activity (CFTR [3]; [7]) | AUC of concentration–response curve, CFTR activity (CFTR [3]; [8]) | Baseline of concentration–response curve, CFTR activity (CFTR [3]; [9]) | EC50 of concentration–response curve, CFTR activity (CFTR [3]; [9]) | Emax of concentration–response curve, CFTR activity (CFTR [3]; [9]) | AUC of concentration–response curve, CFTR activity (CFTR [3]; [10]) | EC50 (CFTR [3]; [11]) | maximal degree of change for CFTR activity (CFTR [3]; Calu-3, ISO compared with FSK, inducers alone) | EC50 (CFTR [3]; value in picture, no unit, read-out: EC50, CFTR activity (Figure 3)) | AUC of CFTR activity time course compared with VX-770 alone (CFTR [4]) | max peak of CFTR activity compared with VX-770 alone (CFTR [4]) | CFTR activation (CFTR [5]) | CFTR potentiation beyond max FSK stimulation (CFTR [6])
Cn1c(CSc2nc3ccccc3s2)n[nH]c1=S [Ceefourin-1] | 0.7 µM | 4.8 µM | No combination of ABCC4 inhibitor and cAMP-elevating agent changed CFTR activity | No combination of ABCC4 inhibitor and cAMP-elevating agent changed CFTR activity | No combination of ABCC4 inhibitor and cAMP-elevating agent changed CFTR activity | No combination of ABCC4 inhibitor and cAMP-elevating agent changed CFTR activity | No combination of ABCC4 inhibitor and cAMP-elevating agent changed CFTR activity | No combination of ABCC4 inhibitor and cAMP-elevating agent changed CFTR activity | No combination of ABCC4 inhibitor and cAMP-elevating agent changed CFTR activity | No combination of ABCC4 inhibitor and cAMP-elevating agent changed CFTR activity |  |  |  |  |  |  | 
C=C[C@@]1(C)CC(=O)[C@]2(O)[C@@]3(C)[C@@H](O)CCC(C)(C)[C@@H]3[C@H](O)[C@H](OC(C)=O)[C@@]2(C)O1 [FSK, forskolin] |  |  |  |  |  |  |  |  |  |  | 0.19 µM |  |  |  |  |  | 
CC(C)Cn1c(=O)n(C)c(=O)c2[nH]cnc21 [IBMX] |  |  |  |  |  | Significant increases | significant increases |  |  | Significant increases |  |  |  |  |  |  | 
CC(C)NCC(O)c1ccc(O)c(O)c1 (stereo not drawn) [ISO, isoproterenol] |  |  |  |  |  |  |  |  |  |  | 0.07 µM | greater | 0.066 µM |  |  |  | 
CN(C)C(=O)CCSC(SCCC(=O)O)c1cccc(/C=C/c2ccc3ccc(Cl)cc3n2)c1 (stereo not drawn) [MK-571] |  |  | No combination of ABCC4 inhibitor and cAMP-elevating agent changed CFTR activity | No combination of ABCC4 inhibitor and cAMP-elevating agent changed CFTR activity | No combination of ABCC4 inhibitor and cAMP-elevating agent changed CFTR activity | No combination of ABCC4 inhibitor and cAMP-elevating agent changed CFTR activity | No combination of ABCC4 inhibitor and cAMP-elevating agent changed CFTR activity | No combination of ABCC4 inhibitor and cAMP-elevating agent changed CFTR activity | No combination of ABCC4 inhibitor and cAMP-elevating agent changed CFTR activity | No combination of ABCC4 inhibitor and cAMP-elevating agent changed CFTR activity |  |  |  |  |  |  | 
O=C(Nc1c(Cl)cncc1Cl)c1ccc(OC(F)F)c(OCC2CC2)c1 [Roflumilast] |  |  | not different | not different | not different | not FSK | not different | not different | not different | significant increases |  |  |  | significantly greater than VX-770 alone | significantly greater than VX-770 alone | led to CFTR activation | did not potentiate CFTR activity beyond the max stimulation that resulted from the addition of FSK
COc1ccc(C2CNC(=O)C2)cc1OC1CCCC1 (stereo not drawn) [Rolipram] |  |  | not different | not different | not different | not FSK | not different | not different | not different | significant increases |  |  |  |  |  |  | 
